Test system: SARS-CoV-2
Experiment: Antiviral activity against SARS-CoV-2 pseudotyped lentivirus infected in HEK293 cells overexpressing EGFP-fused hACE2 coexpressing mCherry assessed as reduction in virus entry incubated for 40 mins by immunocytochemistry assay
Assay type: functional, organism-based
Settings: Severe acute respiratory syndrome coronavirus 2, HEK293, 40 min

## C=C[C@@](C)(/C=C/c1ccc(O)cc1)CCC=C(C)C [BAKUCHIOL]
  EC50: 110 µM

## CC(C)=CCc1c(O)ccc(C(=O)/C=C/c2ccc(O)cc2)c1O [ISOBAVACHALCONE]
  EC50: 51.5 µM

From ChEMBL document CHEMBL5512692, “Colloidal Aggregation Confounds Cell-Based Covid-19 Antiviral Screens” (J Med Chem, 2024)
